Laboratory results published in US9255100B2 (BAYER INTELLECTUAL PROPERTY GMBH, priority 2010, dated 2016).
Values joined by “and” are separate entries in the source; they are usually repeats but may differ in a detail not shown here. Equal values may be shown once.

biological target: T1, N-terminally GST-tagged human full length recombinant Mps-1 kinase (Homo sapiens, UniProt P33981); assay: Mps-1 kinase assay (TR-FRET); type: biochemical; conditions: Mps1 IC50 [nM], 10 μM ATP, 1 μM peptide substrate, 60 min at 22° C.
T1 construct: N-terminally GST-tagged human full length recombinant Mps-1 kinase; purchased Invitrogen, Karslruhe, Germany PV4071
T1 sequence (P33981 1-857): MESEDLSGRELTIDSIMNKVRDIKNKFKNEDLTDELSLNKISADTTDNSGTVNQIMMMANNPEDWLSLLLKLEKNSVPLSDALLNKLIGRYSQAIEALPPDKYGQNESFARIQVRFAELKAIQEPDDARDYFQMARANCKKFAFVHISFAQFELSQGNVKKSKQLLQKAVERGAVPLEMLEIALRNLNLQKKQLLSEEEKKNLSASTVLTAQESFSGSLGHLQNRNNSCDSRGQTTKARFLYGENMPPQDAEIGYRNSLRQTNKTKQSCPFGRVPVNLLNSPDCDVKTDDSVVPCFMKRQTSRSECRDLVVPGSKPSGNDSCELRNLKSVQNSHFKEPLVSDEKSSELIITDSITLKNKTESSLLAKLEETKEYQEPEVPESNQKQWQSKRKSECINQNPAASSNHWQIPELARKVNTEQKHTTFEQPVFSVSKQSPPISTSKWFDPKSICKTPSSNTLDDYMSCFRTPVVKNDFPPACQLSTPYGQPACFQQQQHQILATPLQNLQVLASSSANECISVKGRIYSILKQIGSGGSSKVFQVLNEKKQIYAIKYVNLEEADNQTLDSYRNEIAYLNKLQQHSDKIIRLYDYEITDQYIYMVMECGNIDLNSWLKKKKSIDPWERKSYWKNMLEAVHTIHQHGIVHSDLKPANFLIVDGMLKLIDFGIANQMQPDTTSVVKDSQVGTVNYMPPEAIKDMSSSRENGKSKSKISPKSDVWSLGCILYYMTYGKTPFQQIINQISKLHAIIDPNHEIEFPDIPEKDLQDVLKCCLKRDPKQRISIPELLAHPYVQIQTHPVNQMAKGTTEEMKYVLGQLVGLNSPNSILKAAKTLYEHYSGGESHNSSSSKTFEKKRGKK
Method in brief: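 Compounds were tested against recombinant full-length Mps-1 bearing an N-terminal GST tag, about 1 nM final, with a biotinylated amide-capped peptide as substrate. Detection reagents were then bound for 1 h at 22° C and the product read by TR-FRET.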

SMILES | IC50
Cc1cc(-c2cnc3c(NCC(C)(C)O)cc(-c4cncnc4)nn23)ccc1C(=O)NC1CC1 [Example 163, N-cyclopropyl-4-{8-[(2-hydroxy-2-methylpropyl)amino]-6-(pyrimidin-5-yl)imidazo[1,2-b]pyridazin-3-yl}-2-methylbenzamide] | 30.5 nM
CC(C)(O)CNc1cc(C2=CCCCC2)nn2c(-c3ccc(C(=S)NC4CC4)cc3)cnc12 [Example 43, 4-{6-(Cyclohex-1-en-1-yl)-8-[(2-hydroxy-2-methylpropyl)amino]imidazo[1,2-b]pyridazin-3-yl}-N-cyclopropylbenzenecarbothioamide] | 21.1 nM
NC(=O)c1ccc(-c2cnc3c(NCc4cccs4)cc(Cl)nn23)cc1 [Example 191, 4-{6-Chloro-8-[(thiophen-2-yl-methyl)amino]imidazol[1,2-b]pyridazin-3-yl}benzamide] | ≥ 20000 nM
Cc1cc(-c2cnc3c(NCC(C)(C)O)cc(OCC4CC4(F)F)nn23)ccc1C(=O)NC1CC1 (racemic) [Example 240, (RS)—N-cyclopropyl-4-{6-[(2,2-difluorocyclopropyl)methoxy]-8-[(2-hydroxy-2-methylpropyl)amino]imidazo[1,2-b]pyridazin-3-yl}-2-methylbenzamide] | 1.2 nM
CCNC(=O)c1ccc(-c2cnc3c(NCCC(F)(F)F)cc(Oc4ccccc4C)nn23)cc1C [Example 601, N-ethyl-2-methyl-4-{6-(2-methylphenoxy)-8-[(3,3,3-trifluoropropyl)a-mino]imidazo[1,2-b]pyridazin-3-yl}benzamide] | < 1 nM
Cc1cc(-c2cnc3c(NCC(C)(C)O)cc(Nc4ccc(CCO)cc4)nn23)ccc1C(=O)NC1CC1 [Example 386, N-cyclopropyl-4-(6-{[4-(2-hydroxyethyl)phenyl]amino}-8-[(2-hydroxy-2-methylpropyl)amino]imidazo[1,2-b]pyridazin-3-yl)-2-methylbenzamide] | 1.5 nM
CNC(=O)c1ccc(-c2cnc3c(NCCOC)cc(Oc4cc(F)ccc4C)nn23)cc1C [Example 585, 4-{6-(5-fluoro-2-methylphenoxy)-8-[(2-methoxyethyl)a-mino]imidazo[1,2-b]pyridazin-3-yl}-N,2-dimethylbenzamide] | 5.4 nM
CNC(=O)c1ccc(-c2cnc3c(NCCN4CCOCC4)cc(Oc4ccc(OC)cc4F)nn23)cc1C [Example 565, 4-[6-(2-fluoro-4-methoxyphenoxy)-8-{[2-(morpholin-4-yl)ethyl]amino}imidazo[1,2-b]pyridazin-3-yl]-N,2-dimethylbenzamide] | 3.5 nM
Cc1cc(-c2cnc3c(NCCC(F)(F)F)cc(Nc4ccc(F)cc4O)nn23)ccc1C(=O)NC1CC1 [Example 396, N-cyclopropyl-4-{6-[(4-fluoro-2-hydroxyphenyl)amino]-8-[(3,3,3-trifluoropropyl)amino]imidazo[1,2-b]pyridazin-3-yl}-2-methylbenzamide] | 0.1 nM and 0.3 nM
Cc1cc(-c2cnc3c(NCC(C)C)cc(SCC4CCCO4)nn23)ccc1C(=O)NC1CC1 (racemic) [Example 194, (RS)—N-cyclopropyl-2-methyl-4-{8-[(2-methylpropyl)amino]-6-[(tetrahydrofuran-2-ylmethyl)sulfanyl]imidazo[1,2-b]pyridazin-3-yl}benzamide] | 2.5 nM
COc1ccc(Nc2cc(NCC(C)(C)O)c3ncc(-c4ccc(C(=O)NC5CC5)c(C)c4)n3n2)cc1F [Example 353, N-cyclopropyl-4-{6-[(3-fluoro-4-methoxyphenyl)amino]-8-[(2-hydroxy-2-methylpropyl)amino]imidazo[1,2-b]pyridazin-3-yl}-2-methylbenzamide] | 0.4 nM
COc1cccc(Nc2cc(NCC(C)(C)O)c3ncc(-c4ccc(C(=O)NC5CC5)c(C)c4)n3n2)c1 [Example 403, N-cyclopropyl-4-{8-[(2-hydroxy-2-methylpropyl)amino]-6-[(3-methoxyphenyl)amino]imidazo[1,2-b]pyridazin-3-yl}-2-methylbenzamide] | 1 nM

Second part, the molecule after the results:

IC50 | SMILES
0.3 nM | Cc1cc(-c2cnc3c(NCC4CCS(=O)(=O)CC4)cc(Oc4ccc(Cl)cc4)nn23)ccc1C(=O)NC1CC1 [Example 294A, 4-[6-(4-chlorophenoxy)-8-{[(1,1-dioxidotetrahydro-2H-thiopyran-4-yl)methyl]amino}imidazo[1,2-b]pyridazin-3-yl]-N-cyclopropyl-2-methylbenzamide]
0.3 nM | COC1(NC(=O)c2ccc(-c3cnc4c(NCCC(F)(F)F)cc(Oc5cccc(F)c5)nn34)cc2C)CC1 [Example 460, 4-{6-(3-fluorophenoxy)-8-[(3,3,3-trifluoropropyl)amino]imidazo[1,2-b]pyridazin-3-yl}-N-(1-methoxycyclopropyl)-2-methylbenzamide]
0.1 nM | Cc1cc(-c2cnc3c(NCCN4CCN(C)CC4)cc(Oc4cccc(F)c4)nn23)ccc1C(=O)NC1CC1 [Example 501, N-cyclopropyl-4-[6-(3-fluoro-phenoxy)-8-{[2-(4-methyl-piperazin-1-yl)ethyl]amino}imidazo[1,2-b]pyridazin-3-yl]-2-methylbenzamide]
< 0.1 nM | COc1ccc(Sc2cc(NCC(C)(C)O)c3ncc(-c4ccc(C(=O)NC5CC5)c(C)c4)n3n2)cc1 [Example 60B, N-cyclopropyl-4-{8-[(2-hydroxy-2-methylpropyl)amino]-6-[(4-methoxyphenyl)sulfanyl]imidazo[1,2-b]pyridazin-3-yl}-2-methylbenzamide]
0.3 nM | CNC(=O)c1ccc(-c2cnc3c(NCCC(F)(F)F)cc(Oc4ccc(Cl)cc4)nn23)cc1C [Example 558, 4-{6-(4-chlorophenoxy)-8-[(3,3,3-trifluoropropyl)amino]imidazo[1,2-b]pyridazin-3-yl}-N, 2-dimethylbenzamide]
0.1 nM | Cc1cc(-c2cnc3c(NCCC(F)(F)F)cc(Nc4ccccc4)nn23)ccc1C(=O)NC1CC1 [Example 368, 4-{6-anilino-8-[(3,3,3-trifluoropropyl)amino]imidazo[1,2-b]pyridazin-3-yl}-N-cyclopropyl-2-methylbenzamide]
0.4 nM | Cc1cc(-c2cnc3c(NCC(C)(C)O)cc(Oc4cccnc4)nn23)ccc1C(=O)NC1CC1 [Example 173, N-cyclopropyl-4-{8-[(2-hydroxy-2-methylpropyl)amino]-6-(pyridin-3-yloxy)imidazo[1,2-b]pyridazin-3-yl}-2-methylbenzamide]
< 0.1 nM | Cc1cc(-c2cnc3c(NCC4CC(=O)N(C)C4)cc(Oc4cccc(F)c4)nn23)ccc1C(=O)NC1CC1 (centres unmarked) [Example 329, N-cyclopropyl-4-[6-(3-fluorophenoxy)-8-{[(1-methyl-5-oxopyrrolidin-3-yl)methyl]amino}imidazo [1,2-b]pyridazin-3-yl]-2-methylbenzamide]
0.3 nM | Cc1cc(-c2cnc3c(NCC(C)(C)O)cc(Oc4cccc(OC(C)C)c4)nn23)ccc1C(=O)NC1CC1 [Example 361, N-cyclopropyl-4-{8-[(2-hydroxy-2-methylpropyl)amino]-6-(3-isopropoxyphenoxy)imidazo[1,2-b]pyridazin-3-yl}-2-methylbenzamide]
0.4 nM | Cc1cc(-c2cnc3c(NCC(C)(C)O)cc(Nc4ccc(F)nc4)nn23)ccc1C(=O)NC1CC1 [Example 406, N-cyclopropyl-4-{6-[(6-fluoropyridin-3-yl)amino]-8-[(2-hydroxy-2-methylpropyl)amino]imidazo[1,2-b]pyridazin-3-yl}-2-methylbenzamide]
0.2 nM | Cc1cc(-c2cnc3c(NCCC(F)(F)F)cc(Sc4ccc(F)cc4N)nn23)ccc1C(=O)NC1CC1 [Example 417, 4-{6-[(2-amino-4-fluorophenyl)sulfanyl]-8-[(3,3,3-trifluoropropyl)amino]imidazo[1,2-b]pyridazin-3-yl}-N-cyclopropyl-2-methylbenzamide]
0.3 nM | Cc1cc(-c2cnc3c(NCC(C)(C)O)cc(Oc4ccc5ncccc5c4)nn23)ccc1C(=O)NC1CC1 [Example 168, N-cyclopropyl-4-{8-[(2-hydroxy-2-methylpropyl)amino]-6-(quinolin-6-yloxy)imidazo[1,2-b]pyridazin-3-yl}-2-methylbenzamide]
< 0.1 nM | Cc1cc(-c2cnc3c(NCCC(F)(F)F)cc(Oc4cccnc4)nn23)ccc1C(=O)NC1CC1 [Example 174, N-cyclopropyl-2-methyl-4-{6-(pyridin-3-yloxy)-8-[(3,3,3-trifluoro-propyl)amino]imidazo[1,2-b]pyridazin-3-yl}benzamide]
0.2 nM | Cc1cc(-c2cnc3c(NCCN4CCCC4)cc(Oc4cccc(F)c4)nn23)ccc1C(=O)NC1CC1 [Example 502, N-cyclopropyl-4-[6-(3-fluoro-phenoxy)-8-{[2-(pyrrolidin-1-yl)ethyl]amino}imidazo[1,2-b]pyridazin-3-yl]-2-methyl-benzamide]
